Assay: xn = mol fraction of the nth substance listed
Details: 101 kPa

CCCC[n+]1ccccc1.F[B-](F)(F)F + CO
Details | speed of sound [m/s]
293.15 K, x2 = 0.1574 | 1589.5
293.15 K, x2 = 0.2119 | 1580.3
293.15 K, x2 = 0.3113 | 1561.6
293.15 K, x2 = 0.3856 | 1545.2
293.15 K, x2 = 0.6109 | 1473.1
293.15 K, x2 = 0.7044 | 1424.8
293.15 K, x2 = 0.8043 | 1353.2
293.15 K, x2 = 0.9023 | 1256.7
303.15 K, x2 = 0.1058 | 1582.7
303.15 K, x2 = 0.2119 | 1558.3
303.15 K, x2 = 0.3856 | 1522.7
303.15 K, x2 = 0.5052 | 1491.6
303.15 K, x2 = 0.6109 | 1450.8
303.15 K, x2 = 0.8043 | 1330.3
303.15 K, x2 = 0.9023 | 1234.7
313.15 K, x2 = 0.1058 | 1552.6
313.15 K, x2 = 0.1574 | 1544.6
313.15 K, x2 = 0.2119 | 1535.7
313.15 K, x2 = 0.3113 | 1516.7
313.15 K, x2 = 0.3856 | 1500.1
313.15 K, x2 = 0.6109 | 1427.1
313.15 K, x2 = 0.7044 | 1378.5
313.15 K, x2 = 0.9512 | 1140.1
323.15 K, x2 = 0.211 | 1512.7
323.15 K, x2 = 0.3066 | 1494.7
323.15 K, x2 = 0.4111 | 1470.5
323.15 K, x2 = 0.5203 | 1440.9
323.15 K, x2 = 0.703 | 1363
323.15 K, x2 = 0.8081 | 1281.6
323.15 K, x2 = 0.9038 | 1172.9

CCCC[n+]1ccccc1.F[B-](F)(F)F + CCO
speed of sound [m/s]
Details | 303.15 K | 313.15 K | 323.15 K
x2 = 0.072 | 1575.2 | – | 1529.8
x2 = 0.147 | 1555.4 | 1532.9 | 1511.8
x2 = 0.2229 | – | 1520.8 | –
x2 = 0.3295 | 1514.6 | 1492.5 | 1470.4
x2 = 0.4136 | 1488.6 | 1466.5 | –
x2 = 0.5006 | 1454.7 | 1433.1 | 1409.4
x2 = 0.5789 | – | – | 1374.8
x2 = 0.7074 | 1345.6 | 1329.7 | 1306.2
x2 = 0.8052 | – | 1256.1 | 1233.5
x2 = 0.8999 | 1199.4 | 1175.8 | –
x2 = 0.948 | 1163.7 | 1135.3 | 1106.3

Source: a compilation of properties of binary mixtures (doi:10.1016/j.jct.2010.07.014)
